Converted amounts (≈) assume the structure as drawn. Read-outs that look alike come from different tables or passages of the source.
Experiments:
[1] = target: T1, full-length beta-Catenin (Uniprot ID P35222) (Homo sapiens, UniProt P35222); assay: Fluorescence polarization IC50 (beta-catenin / 5FAM-TCF4 10-53 competition); assay type: binding
T1 construct: 10 nM full-length beta-Catenin (Uniprot ID P35222)
T1 sequence (P35222 1-781): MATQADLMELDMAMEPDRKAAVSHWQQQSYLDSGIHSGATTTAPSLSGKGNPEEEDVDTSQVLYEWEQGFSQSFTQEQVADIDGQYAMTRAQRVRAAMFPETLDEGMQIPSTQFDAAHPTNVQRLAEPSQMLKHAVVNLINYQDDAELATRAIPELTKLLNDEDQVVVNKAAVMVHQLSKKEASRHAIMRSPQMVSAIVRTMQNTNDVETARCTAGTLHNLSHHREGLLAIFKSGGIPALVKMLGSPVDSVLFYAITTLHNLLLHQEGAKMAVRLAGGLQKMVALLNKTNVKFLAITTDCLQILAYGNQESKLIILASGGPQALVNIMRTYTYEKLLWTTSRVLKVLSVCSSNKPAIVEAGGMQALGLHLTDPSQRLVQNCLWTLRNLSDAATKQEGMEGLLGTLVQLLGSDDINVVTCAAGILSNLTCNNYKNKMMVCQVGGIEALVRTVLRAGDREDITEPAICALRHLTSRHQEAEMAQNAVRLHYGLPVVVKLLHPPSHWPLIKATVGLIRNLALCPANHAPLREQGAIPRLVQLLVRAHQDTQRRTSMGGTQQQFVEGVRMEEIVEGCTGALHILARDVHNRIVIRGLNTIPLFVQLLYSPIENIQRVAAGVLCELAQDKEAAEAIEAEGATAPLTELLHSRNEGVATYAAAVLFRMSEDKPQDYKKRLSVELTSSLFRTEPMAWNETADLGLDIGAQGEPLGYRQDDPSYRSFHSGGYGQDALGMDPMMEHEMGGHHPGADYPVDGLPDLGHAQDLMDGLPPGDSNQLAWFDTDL

[2] = CHI Log D procedure; assay type: physicochemical; details: for CHI Log D: pH 7.4; for chromatographic logD: pH 7.4, CHI Log D
[3] = Solubility in PBS; assay type: physicochemical
How it was run: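 The PBS solution was ultracentrifuged and the supernatant analyzed by HPLC. Its peak area was divided by that of a 50 μM peptide DMSO reference injection and multiplied by 50 uM to give solubility.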

[4] = fluorescence polarization, read-out: beta-Catenin FP IC50
[5] = fluorescence polarization, beta-catenin, read-out: FP EC50

Row | Compound | IC50 [1, 4] [nM] | IC50 ([1]; read-out: FP EC50) [nM] | CHI Log D [2] | Solubility [3] [µM] | IC50 ([1]; read-out: beta-Catenin FP IC50) [nM] | chromatographic logD [2] | Solubility ([3]; Solubility (uM)) [µM] | IC50 ([1]; Table E2-1, read-out: beta-Catenin FP IC50) [nM] | IC50 [1, 5] [nM]
1 | CC(=O)N1CCC[C@]12CC=CCCCC1(CCCC=CCCCCCC[C@@](C)(C(=O)N[C@@H](Cc3ccsc3)C(=O)N[C@@H](Cc3csc4ccccc34)C(=O)N[C@@H](CCC(N)=O)C(N)=O)NC(=O)[C@H](CCC(N)=O)NC(=O)[C@H](Cc3ccccc3)NC(=O)[C@H](C)NC(=O)[C@H](C)NC(=O)[C@H](CCC(=O)O)NC(=O)[C@H](CC(=O)O)NC1=O)NC(=O)[C@H](C)NC(=O)[C@H](CC(=O)O)NC2=O (stereo partly drawn) [I-426, Ac-PL3-Asp-Ala-B5-Asp-Glu-Ala-Ala-Phe-Gln-S8-3Thi-BztA-Gln-NH2] | 109 | 109 | 1.959 | 33 (≈ 61 µg/mL) | – | – | – | – | –
2 | COCCOCCOCCOCCC(=O)NCCCC[C@H](NC(=O)[C@H](CCC(N)=O)NC(=O)[C@H](Cc1csc2ccccc12)NC(=O)[C@H](Cc1ccsc1)NC(=O)[C@]12CCN(C1)C(=O)OCCCC=CCCCC1(CCCC=CC[C@]3(CCCN3C(C)=O)C(=O)N[C@@H](CC(=O)O)C(=O)N[C@@H](CC(C)(C)C)C(=O)N1)C(=O)N[C@@H](CC(=O)O)C(=O)N[C@@H](CC(=O)O)C(=O)N[C@@H](C)C(=O)N[C@@H](C)C(=O)N[C@@H](Cc1ccccc1)C(=O)N[C@@H](CC(N)=O)C(=O)N2)C(N)=O (stereo partly drawn) [I-912, Ac-PL3-Asp-Npg-B5-Asp-Asp-Ala-Ala-Phe-Asn-PyrS2-3Thi-BztA-Gln-[mPEG4]Lys-NH2] | – | – | – | – | 10 | 1.83 | 45 (≈ 102 µg/mL) | – | –
3 | CC(=O)N1CCC[C@]12CC=CCCCC1(CCCC=CCCCCCC[C@@](C)(C(=O)N[C@@H](Cc3ccccc3)C(=O)N[C@@H](Cc3csc4ccccc34)C(=O)N[C@@H](Cc3c[nH]cn3)C(N)=O)NC(=O)[C@H](CCC(N)=O)NC(=O)[C@H](Cc3ccccc3)NC(=O)[C@H](C)NC(=O)[C@H](C)NC(=O)[C@H](CC(=O)O)NC(=O)[C@H](CC(=O)O)NC1=O)NC(=O)[C@H](C)NC(=O)[C@H](CC(=O)O)NC2=O (stereo partly drawn) [I-361, Ac-PL3-Asp-Ala-B5-Asp-Asp-Ala-Ala-Phe-Gln-S8-Phe-BztA-His-NH2] | – | – | 2.058 | 46 (≈ 84.5 µg/mL) | – | – | – | 42 | 42
4 | CC(=O)N1CCC[C@]12CC=CCCCC1(CCCC=CCCCCCC[C@@](C)(C(=O)N[C@@H](Cc3ccccc3)C(=O)N[C@@H](Cc3csc4ccccc34)C(=O)N[C@H](CCC(N)=O)C(N)=O)NC(=O)[C@H](CCC(N)=O)NC(=O)[C@H](Cc3ccccc3)NC(=O)[C@H](C)NC(=O)[C@H](C)NC(=O)[C@H](CCC(=O)O)NC(=O)[C@H](CC(=O)O)NC1=O)NC(=O)[C@H](C)NC(=O)[C@H](CC(=O)O)NC2=O (stereo partly drawn) [I-494, Ac-PL3-Asp-Ala-B5-Asp-Glu-Ala-Ala-Phe-Gln-S8-Phe-BztA-DGIn-NH2] | 82 | – | – | – | – | 2.05 | 44 (≈ 81 µg/mL) | – | –
5 | CC(=O)N1CCC[C@]12CC=CCCCC1(CCCC=CCCCCCC[C@@](C)(C(=O)N[C@@H](Cc3ccccc3)C(=O)N[C@@H](Cc3csc4ccccc34)C(=O)N[C@@H](CCC(N)=O)C(N)=O)NC(=O)[C@H](CC(N)=O)NC(=O)[C@H](Cc3cscn3)NC(=O)[C@H](C)NC(=O)[C@H](C)NC(=O)[C@H](CCC(=O)O)NC(=O)[C@H](CC(=O)O)NC1=O)NC(=O)[C@H](C)NC(=O)[C@H](CC(=O)O)NC2=O (stereo partly drawn) [I-524, Ac-PL3-Asp-Ala-B5-Asp-Glu-Ala-Ala-4Thz-Asn-S8-Phe-BztA-Gln-NH2] | 2550 | – | – | 50 (≈ 91.7 µg/mL) | – | 1.89 | – | – | –
6 | CC[C@H](C)[C@@H]1NC(=O)[C@H](CC(=O)O)NC(=O)[C@]2(CC=CCCCC3(CCCC=CCCCCCC[C@@](C)(C(=O)N[C@@H](Cc4ccccc4)C(=O)N[C@@H](Cc4csc5ccccc45)C(=O)N[C@@H](CCC(N)=O)C(N)=O)NC(=O)[C@H](CCC(N)=O)NC(=O)[C@H](c4ccccc4)NC(=O)[C@H](C)NC(=O)[C@H](C)NC(=O)[C@H](CCC(=O)O)NC(=O)[C@H](CC(=O)O)NC3=O)NC1=O)CCCN2C(C)=O (stereo partly drawn) [I-726, Ac-PL3-Asp-Ile-B5-Asp-Glu-Ala-Ala-Phg-Gln-S8-Phe-BztA-Gln-NH2] | 5000 | – | – | – | – | 2.34 | 43 (≈ 80.4 µg/mL) | – | –
7 | CC(=O)N1CCC[C@]12CC=CCCCC1(CCCC=CCCCCCC[C@@](C)(C(=O)N[C@@H](Cc3ccccc3)C(=O)N[C@@H](Cc3csc4ccccc34)C(=O)N[C@@H](CCC(N)=O)C(N)=O)NC(=O)[C@H](CC(N)=O)NC(=O)[C@H](Cc3ccccc3)NC(=O)[C@H](C)NC(=O)[C@H](C)NC(=O)[C@H](CCC(=O)O)NC(=O)[C@H](CC(=O)O)NC1=O)NC(=O)[C@H](C)NC(=O)[C@H](CC(=O)O)NC2=O (stereo partly drawn) [I-425, Ac-PL3-Asp-Ala-B5-Asp-Glu-Ala-Ala-Phe-Asn-S8-Phe-BztA-Gln-NH2] | 50 | 50 | 2.01 | 45 (≈ 82.2 µg/mL) | – | – | – | – | –
8 | CC[C@H](C)[C@@H]1NC(=O)[C@H](CC(=O)O)NC(=O)[C@]2(CC=CCCCC3(CCCC=CCCCCCC[C@@](C)(C(=O)N[C@@H](Cc4ccccc4)C(=O)N[C@@H](Cc4csc5ccccc45)C(N)=O)NC(=O)[C@H](CCC(N)=O)NC(=O)[C@H](Cc4ccccc4)NC(=O)[C@H](C)NC(=O)[C@H](C)NC(=O)[C@H](CCC(=O)O)NC(=O)[C@H](CC(=O)O)NC3=O)NC1=O)CCCN2C(C)=O (stereo partly drawn) [I-408, Ac-PL3-Asp-Ile-B5-Asp-Glu-Ala-Ala-Phe-Gln-S8-Phe-BztA-NH2] | 120 | 120 | 2.674 | 50 (≈ 87.8 µg/mL) | – | – | – | – | –
9 | CC(=O)N1CCC[C@]12CC=CCCCC1(CCCC=CCCCCCC[C@@](C)(C(=O)N[C@@H](Cc3ccsc3)C(=O)N[C@@H](Cc3csc4ccccc34)C(N)=O)NC(=O)[C@H](CC(N)=O)NC(=O)[C@H](Cc3ccccc3)NC(=O)[C@H](C)NC(=O)[C@H](C)NC(=O)[C@H](CCC(=O)O)NC(=O)[C@H](CC(=O)O)NC1=O)NC(=O)[C@H](CC(C)C)NC(=O)[C@H](CC(=O)O)NC2=O (stereo partly drawn) [I-717, Ac-PL3-Asp-Leu-B5-Asp-Glu-Ala-Ala-Phe-Asn-S8-3Thi-BztA-NH2] | 39 | 39 | 2.694 | 35 (≈ 61.1 µg/mL) | – | – | – | – | –
10 | CC(=O)N1CCC[C@]12CC=CCCCC1(CCCC=CCCCCCC[C@@](C)(C(=O)N[C@@H](Cc3cccs3)C(=O)N[C@@H](Cc3csc4ccccc34)C(=O)N[C@@H](CCC(N)=O)C(N)=O)NC(=O)[C@H](CCC(N)=O)NC(=O)[C@H](Cc3ccccc3)NC(=O)[C@H](C)NC(=O)[C@H](C)NC(=O)[C@H](CCC(=O)O)NC(=O)[C@H](CC(=O)O)NC1=O)NC(=O)[C@H](C)NC(=O)[C@H](CC(=O)O)NC2=O (stereo partly drawn) [I-428, Ac-PL3-Asp-Ala-B5-Asp-Glu-Ala-Ala-Phe-Gln-S8-2Thi-BztA-Gln-NH2] | 60 | – | – | – | – | 1.99 | 14 (≈ 25.9 µg/mL) | – | –
11 | CC(=O)N1CCC[C@]12CC=CCCCC1(CCCC=CCCCOC(=O)N3CC[C@@](C(=O)N[C@@H](Cc4ccccc4Cl)C(=O)N[C@@H](Cc4csc5ccccc45)C(=O)N[C@@H](CO)C(N)=O)(C3)NC(=O)[C@H](CC(C)C)NC(=O)[C@H](Cc3ccccc3)NC(=O)[C@H](C)NC(=O)[C@H](C)NC(=O)[C@H](CC(=O)O)NC(=O)[C@H](CC(=O)O)NC1=O)NC(=O)[C@H](CC(C)(C)C)NC(=O)[C@H](CC(=O)O)NC2=O (stereo partly drawn) [I-1064, Ac-PL3-Asp-Npg-B5-Asp-Asp-Ala-Ala-Phe-Leu-PyrS2-2C1F-BztA-Ser-NH2] | – | – | 1.967 | 29 (≈ 55.2 µg/mL) | 414 | – | – | – | 414
